The values below come from patent US3939266A, “Substituted sulfonylacetamido cephalosporins” (SmithKline Corporation, priority 1974, dated 1976).

Format in all cases: cell-based
One assay deals with Kleb. pneumo. SK 4200. The experiment in a line: MIC against Kleb. pneumo. SK 4200.
For the next assay, the system named is Pseudo. sp. HH 63. As to the kind of experiment: MIC against Pseudo. sp. HH 63.
The subject of the next assay is S. aureus SK 23390. As to the kind of experiment: MIC against S. aureus SK 23390. The following applies: Staphylococcus aureus, SK23390.
The test system of the next assay is Salmonella ATCC 12176. As to the kind of experiment: MIC against Salmonella ATCC 12176. The following applies: ATCC12176; Salmonella ATCC 12176; read-out: MIC.
Another assay relates to S. aureus HH 127. The experiment in a line: MIC against S. aureus HH 127. To be noted: Staphylococcus aureus, HH127.
The subject of a further assay is Strep. faecalis HH 34358. As to the kind of experiment: MIC against Strep. faecalis HH 34358. The following applies: Enterococcus faecalis, HH34358.
In a further assay the test system is Shigella HH 112. As to the kind of experiment: MIC against Shigella HH 112. To be noted: HH112; Shigella HH 112; read-out: MIC.
The subject of another assay is E. coli SK 12140. As to the kind of experiment: MIC against E. coli SK 12140. To be noted: Escherichia coli, SK12140; E. coli SK 12140; read-out: MIC.
Another assay has as its system Strep. pyog. C 203. As to the kind of experiment: MIC against Strep. pyog. C 203.
A further assay deals with Entero. cloaca PaSL 969. As to the kind of experiment: MIC against Entero. cloaca PaSL 969.
For a further assay, the system named is Serra. marc. ATCC 13880. The experiment in a line: MIC against Serra. marc. ATCC 13880.
In a further assay the test system is S. villaluz. The experiment in a line: MIC against S. villaluz.
In another assay the test system is E. coli HH 33779. As to the kind of experiment: MIC against E. coli HH 33779. The following applies: Escherichia coli, HH33779.
The next assay deals with Kleb. pneumo. SK 1200. The experiment in a line: MIC against Kleb. pneumo. SK 1200.
Assay [1] concerns Entero. aerog. ATCH 13048. The experiment in a line: MIC against Entero. aerog. ATCH 13048.

SMILES strings stand for the structures. Values after ≈ are worked out from the molar mass of the structure shown.

Broadly, the MIC is the least concentration at which growth counts as inhibited. For the compound `CC1=C(C(=O)O)N2C(=O)C(NC(=O)CS(C)(=O)=O)[C@H]2SC1` (stereo partly drawn) [Compound 59454, 7-Methylsulfonylacetamido-3-methyl-3-cephem-4-carboxylic acid], the MIC against Kleb. pneumo. SK 4200 was greater than 200 mg/L; against Pseudo. sp. HH 63, greater than 200 mg/L; in the assay with S. aureus SK 23390, 25 mg/L (≈ 74.8 µM); in the assay with Salmonella ATCC 12176, greater than 200 mg/L; in the assay with S. aureus HH 127, 25 mg/L (≈ 74.8 µM); in the assay on Strep. faecalis HH 34358, greater than 200 mg/L. In addition, the MIC is greater than 200 mg/L in the assay with Shigella HH 112; greater than 200 mg/L in the assay with E. coli SK 12140; 0.4 mg/L (≈ 1.2 µM) with Strep. pyog. C 203; greater than 200 mg/L against Entero. cloaca PaSL 969; greater than 200 mg/L in the assay on Serra. marc. ATCC 13880; greater than 200 mg/L against S. villaluz. Moreover, the MIC (against E. coli HH 33779; with Kleb. pneumo. SK 1200; in assay [1]) was greater than 200 mg/L throughout.

Regarding `Cc1nc(SCC2=C(C(=O)O)N3C(=O)C(NC(=O)CS(C)(=O)=O)C3SC2)n[nH]1` (stereo not drawn) [Compound 59586], the MIC was 3.1 mg/L (≈ 6.93 µM) in the assay with Kleb. pneumo. SK 4200; greater than 200 mg/L with Pseudo. sp. HH 63; 0.8 mg/L (≈ 1.79 µM) with S. aureus SK 23390; 1.6 mg/L (≈ 3.58 µM) in the assay with Salmonella ATCC 12176; 1.6 mg/L (≈ 3.58 µM) against S. aureus HH 127; 100 mg/L (≈ 223 µM) in the assay with Strep. faecalis HH 34358. The MIC in the assay with Shigella HH 112 was 12.5 mg/L (≈ 27.9 µM); in the assay with E. coli SK 12140 it was 6.3 mg/L (≈ 14.1 µM); against Strep. pyog. C 203, 0.2 mg/L (≈ 0.447 µM); against Entero. cloaca PaSL 969, greater than 200 mg/L; in the assay on Serra. marc. ATCC 13880, greater than 200 mg/L; against S. villaluz it was 100 mg/L (≈ 223 µM). Also, the minimal inhibitory concentration (MIC) against E. coli HH 33779 came to 25 mg/L (≈ 55.9 µM); against Kleb. pneumo. SK 1200, 3.1 mg/L (≈ 6.93 µM); in assay [1] it was 200 mg/L (≈ 447 µM).

Take `CS(=O)(=O)CC(=O)NC1C(=O)N2C(C(=O)[O-])=C(C[n+]3ccccc3)CSC12` (stereo not drawn) [Compound 59345, 7-Methylsulfonylacetamido-3-(1-pyridiniummethyl)-3-cephem-4-carboxylic acid]: the MIC is 50 mg/L (≈ 122 µM) with Kleb. pneumo. SK 4200; greater than 200 mg/L with Pseudo. sp. HH 63; 0.8 mg/L (≈ 1.94 µM) in the assay with S. aureus SK 23390; 50 mg/L (≈ 122 µM) in the assay on Salmonella ATCC 12176; 0.8 mg/L (≈ 1.94 µM) with S. aureus HH 127; 100 mg/L (≈ 243 µM) against Strep. faecalis HH 34358. The MIC is 50 mg/L (≈ 122 µM) in the assay with Shigella HH 112; 100 mg/L (≈ 243 µM) in the assay with E. coli SK 12140; 0.1 mg/L (≈ 0.243 µM) in the assay with Strep. pyog. C 203; greater than 200 mg/L against Entero. cloaca PaSL 969; greater than 200 mg/L against Serra. marc. ATCC 13880; 25 mg/L (≈ 60.8 µM) in the assay with S. villaluz. The MIC with E. coli HH 33779 was 100 mg/L (≈ 243 µM); against Kleb. pneumo. SK 1200, 100 mg/L (≈ 243 µM); in assay [1], greater than 200 mg/L.
